In patent US20210061917A1, “METHODS AND COMPOSITIONS FOR TREATING VITILIGO” (INSERM (Institut National de la Santé et de la Recherche …, priority 2018, published 2021):

Tests used:
Type in all cases: cell-based
CXCR3 [1] = molecular target: T1, CXCR3 (Homo sapiens, UniProt P49682); assay: CXCL10-induced melanocyte death, IncuCyte live cell imaging, with CXCR3 antagonist, blocking antibody or siCXCR3; settings: IFNγ-pretreated (50 ng/ml, 48 hrs) vitiligo melanocytes; AS612568 0.02, 0.2, 2 μM; FIG. 2A
T1 sequence (P49682 1-415 isoform P49682-2): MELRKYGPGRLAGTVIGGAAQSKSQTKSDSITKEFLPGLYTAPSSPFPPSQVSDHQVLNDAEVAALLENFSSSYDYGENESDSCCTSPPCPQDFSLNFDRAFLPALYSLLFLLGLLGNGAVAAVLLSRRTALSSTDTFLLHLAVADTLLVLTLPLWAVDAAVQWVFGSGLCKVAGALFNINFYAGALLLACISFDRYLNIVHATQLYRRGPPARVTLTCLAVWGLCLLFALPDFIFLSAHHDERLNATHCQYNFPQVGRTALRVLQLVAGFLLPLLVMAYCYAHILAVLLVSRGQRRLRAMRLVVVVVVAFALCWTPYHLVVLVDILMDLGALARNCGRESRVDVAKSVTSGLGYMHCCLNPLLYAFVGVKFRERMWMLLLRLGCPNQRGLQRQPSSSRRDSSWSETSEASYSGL
Experimental: (A) Effect of CXCL10 (5, 20, 100 pg/ml) on cell viability in unstimulated or IFNγ stimulated (50 ng/ml for 48 hrs) melanocytes from vitiligo patients, in presence or absence of CXCR3 antagonist AS612568 (0.02 μM, 0.2 μM or 2 μM) (n=5-8). Cell viability was monitored using lncuCyte® live cell fluorescence imaging system. (B) Effect of siCXCR3 or siC on CXCL10 (100 pg/ml)-induced death of healthy (n=4-8) and vitiligo (n=4) melanocytes. Melanocytes were tracked with CellTracker™ Red CMPTX dye and dead cells tracked with IncuCyte® Cytotox Green reagent. […] Cell viability was monitored using IncuCyte® live cell fluorescence imaging system. […] Results are expressed as mean with SEM, *P<0.05, **P<0.01 and ***P<0.001.
Melanocytes were plated in 96-well plates (10,000/well) and stimulated with 50 ng/ml IFNγ for 48 hrs prior to transfection with 50 or 80 nM siCXCR3 or siC (SmartPool scramble sequence siRNA, Dharmacon, France) or with 80 nM custom-designed siCXCR3B or siC (ThermoFisher, France) using Lipofectamine® RNAiMAX Reagent (Invitrogen, France) in optiMEM medium (Invitrogen). […] Finally, Incucyte® green Cytotox Reagent (100 nM, Essen Bioscience, Michigan, USA) was added to all wells and melanocyte death monitored in real-time using IncuCyte® Zoom live-cell imaging system (Essen Biosciences) which was inside a 37° C. humidified CO2 incubator scanning the plate every 2 hrs. […]

CXCR3 [2] = molecular target: T1, CXCR3; assay: CXCL10-induced death of vitiligo melanocytes in co-culture with autologous CD3+ T cells, IncuCyte
Excerpt: (A) CXCL10-induced death of vitiligo melanocytes in presence or absence of patients own autologous T cells. […] The next day, media was replaced and 3 days later patient's own CD3+ T cell were sorted and added to the melanocytes (n=3) prior to initiation of IncuCyte.

human melanocytes = assay: Melanocyte death after chemokine stimulation, IncuCyte live cell imaging; settings: for melanocyte death: chemokine 100 pg/ml, healthy and vitiligo melanocytes, 24 hrs, FIG. 2C
Experimental: (A) Effect of CXCL10 (5, 20, 100 pg/ml) on cell viability in unstimulated or IFNγ stimulated (50 ng/ml for 48 hrs) melanocytes from vitiligo patients, in presence or absence of CXCR3 antagonist AS612568 (0.02 μM, 0.2 μM or 2 μM) (n=5-8). Cell viability was monitored using lncuCyte® live cell fluorescence imaging system. (B) Effect of siCXCR3 or siC on CXCL10 (100 pg/ml)-induced death of healthy (n=4-8) and vitiligo (n=4) melanocytes. Melanocytes were tracked with CellTracker™ Red CMPTX dye and dead cells tracked with IncuCyte® Cytotox Green reagent. (C) Healthy and vitiligo melanocytes (n=6-12) were transfected with custom-designed siCXCR3B or siC and melanocyte death shown at 24 hrs following CXCL10, CXCL9 or CXCL11 (100 pg/ml) stimulation. (D) Effect of CXCL10 (100 pg/ml) on cell viability in untreated or IFNγ pretreated (50 ng/ml for 48 hrs) melanocytes from vitiligo patients, in presence or absence of CXCR3 blocking antibody (MAB-160, R&D Systems, USA at 1 or 10 μg/ml) (n=3). Cell viability was monitored using IncuCyte® live cell fluorescence imaging system. Melanocytes were tracked with CellTracker™ Red CMPTX dye and dead cells tracked with IncuCyte® Cytotox Green reagent. Results are expressed as mean with SEM, *P<0.05, **P<0.01 and ***P<0.001.
Melanocytes were plated in 96-well plates (10,000/well) and stimulated with 50 ng/ml IFNγ for 48 hrs prior to transfection with 50 or 80 nM siCXCR3 or siC (SmartPool scramble sequence siRNA, Dharmacon, France) or with 80 nM custom-designed siCXCR3B or siC (ThermoFisher, France) using Lipofectamine® RNAiMAX Reagent (Invitrogen, France) in optiMEM medium (Invitrogen). […] Finally, Incucyte® green Cytotox Reagent (100 nM, Essen Bioscience, Michigan, USA) was added to all wells and melanocyte death monitored in real-time using IncuCyte® Zoom live-cell imaging system (Essen Biosciences) which was inside a 37° C. humidified CO2 incubator scanning the plate every 2 hrs. Multiple images were collected per well and quantification of dead melanocytes (yellow co-localised cells) was analysed using the integrated Zoom® software. […]

N#Cc1ccc(S(=O)(=O)N(Cc2ccc(-c3nnn[nH]3)c(F)c2)Cc2ccccc2F)cc1 [AS612568, 4-cyano-N-(3-fluoro-4-(1H-tetrazol-5-yl)benzyl)-N-(2-fluorobenzyl)benzenesulfonamide]
melanocyte death induced by CXCL10 (CXCR3 [1]): inhibited melanocyte death induced by CXCL10 in a dose-dependent manner
augmentation of T cell number (CXCR3 [2]; AS612568 2 μM, CD3+ T cells in IncuCyte co-culture, P=0.04, FIG. 3B): prevented
potentiating effect of T cells on CXCL10-induced melanocyte death (CXCR3 [2]; AS612568 2 μM, IFNγ-pretreated vitiligo melanocytes plus autologous CD3+ T cells, P=0.008, FIG. 3A): prevented
T cell proliferation (CXCR3 [2]; AS612568, T cells co-cultured with IFNγ-primed, CXCL10-stimulated melanocytes, data not shown): prevented

CXCL10: recombinant human chemokine (PeproTech), CXCR3 ligand used as stimulus
melanocyte death compared to non-stimulated melanocytes (human melanocytes; vitiligo melanocytes, IFNγ pre-treated, CXCL10 5, 20, 100 pg/ml, dose-dependent, P=0.006, FIG. 2A): significantly increased melanocyte death

B1: CXCL11: recombinant human chemokine (PeproTech), CXCR3 ligand used as stimulus (protein, UniProt O14625 22-94, looked up)
C-X-C motif chemokine 11: FPMFKRGRCLCIGPGVKAVKVADIEKASIMYPSNNCDKIEVIITLKENKGQRCLNPKSKQARLIIKKVERKNF
melanocyte death (human melanocytes): induced a significant melanocyte death

B2: CXCL9: recombinant human chemokine (PeproTech), CXCR3 ligand used as stimulus (protein, UniProt Q07325 23-125, looked up)
C-X-C motif chemokine 9: TPVVRKGRCSCISTNQGTIHLQSLKDLKQFAPSPSCEKIEIIATLKNGVQTCLNPDSADVKELIKKWEKQVSQKKKQKNGKKHQKKKVLKVRKSQRSRQKKTT
melanocyte death (human melanocytes): induced a significant melanocyte death
